{"source": "paper PMC4232510", "about": "“Identification of Functionally Important Residues of the Rat P2X4 Receptor by Alanine Scanning Mutagenesis of the Dorsal Fin and Left Flipper Domains” (PLoS ONE, 2014)", "assay_in_all_cases": "whole-cell patch clamp, HEK293T cells expressing mutant", "assay_type_in_all_cases": "cell-based", "settings_in_all_cases": "for relative responsiveness: 100 µM agonist 2 s, relative to ATP (100%)", "key": {"rP2X4R Y213A mutant": {"molecular_target": "T1, rP2X4R Y213A mutant (Rattus norvegicus, UniProt P51577, Y213A)", "T1 construct": "expressed in transfected cells; host or cells: HEK293T", "T1 sequence (P51577 1-388 Y213A)": "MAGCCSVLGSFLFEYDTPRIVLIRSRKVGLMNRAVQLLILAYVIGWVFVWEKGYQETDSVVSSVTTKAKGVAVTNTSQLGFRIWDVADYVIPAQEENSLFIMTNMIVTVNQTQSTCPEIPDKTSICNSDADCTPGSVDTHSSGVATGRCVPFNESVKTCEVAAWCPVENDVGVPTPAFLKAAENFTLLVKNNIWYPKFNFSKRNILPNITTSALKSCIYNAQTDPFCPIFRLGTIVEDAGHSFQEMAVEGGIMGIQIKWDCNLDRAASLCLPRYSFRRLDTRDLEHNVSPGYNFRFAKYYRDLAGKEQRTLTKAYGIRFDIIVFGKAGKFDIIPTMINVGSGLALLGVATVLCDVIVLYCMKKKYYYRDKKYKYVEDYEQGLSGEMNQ"}, "rP2X4R T281A mutant": {"molecular_target": "T2, rP2X4R T281A mutant (Rattus norvegicus, UniProt P51577, T281A)", "T2 construct": "expressed in transfected cells; host or cells: HEK293T", "T2 sequence (P51577 1-388 T281A)": "T1 sequence (P51577 1-388 Y213A) with A213Y, T281A"}, "rP2X4R N208A mutant": {"molecular_target": "T3, rP2X4R N208A mutant (Rattus norvegicus, UniProt P51577, N208A)", "T3 construct": "expressed in transfected cells; host or cells: HEK293T", "T3 sequence (P51577 1-388 N208A)": "T1 sequence (P51577 1-388 Y213A) with N208A, A213Y"}, "[1]": {"settings": "100 µM ATP 60 s, biexponential fit"}, "[2]": {"settings": "contribution of τdes2, 100 µM ATP 60 s"}, "[3]": {"settings": "decay after removal of 1 or 3 µM ATP, 3 µM IVM"}, "[4]": {"settings": "naïve receptors, 2–5 s application"}, "[5]": {"settings": "3 µM IVM 4-6 min vs IVM-untreated"}}, "note": "Changes are numbered by the printed parent chain.", "data": [{"compound": "2′(3′-O-(4-Benzoylbenzoyl)adenosine 5′-triphosphate [BzATP]", "values": [{"measurement": "relative responsiveness", "setting": "rP2X4R Y213A mutant", "result": "27.3±5.5", "unit": "%"}, {"measurement": "relative responsiveness", "setting": "rP2X4R T281A mutant", "result": "26.7±3.9", "unit": "%"}, {"measurement": "relative responsiveness", "setting": "rP2X4R N208A mutant", "result": "33.4±5.4", "unit": "%"}]}, {"compound": "CSc1nc(N)c2ncn([C@@H]3O[C@H](COP(=O)(O)OP(=O)(O)OP(=O)(O)O)[C@@H](O)[C@H]3O)c2n1", "note": "[2-MeS-ATP, 2-(Methylthio)adenosine 5′-triphosphate]", "values": [{"measurement": "relative responsiveness", "setting": "rP2X4R Y213A mutant", "result": "63.8±16.4", "unit": "%"}, {"measurement": "relative responsiveness", "setting": "rP2X4R T281A mutant", "result": "69.6±5.1", "unit": "%"}, {"measurement": "relative responsiveness", "setting": "rP2X4R N208A mutant", "result": "60.0±11.2", "unit": "%"}]}, {"compound": "Nc1ncnc2c1ncn2[C@@H]1O[C@H](COP(=O)(O)OP(=O)(O)OP(=O)(O)O)[C@@H](O)[C@H]1O", "note": "[ATP]", "values": [{"measurement": "τdes1", "setting": "rP2X4R Y213A mutant; [1]", "result": "3.0 ± 0.3", "unit": "s"}, {"measurement": "τdes2", "setting": "rP2X4R Y213A mutant; [1]", "result": "12.4 ± 1.6", "unit": "s"}, {"measurement": "Imax", "setting": "rP2X4R Y213A mutant; 100–1000 µM ATP", "result": "2.2 ± 0.4", "unit": "nA"}, {"measurement": "Imax+IVM", "setting": "rP2X4R Y213A mutant; ATP after 3 µM IVM 4-6 min", "result": "3.1 ± 0.2", "unit": "nA"}, {"measurement": "A2 /(A1+A2)", "setting": "rP2X4R Y213A mutant; [2]", "result": "61 ± 6", "unit": "%"}, {"measurement": "τoff +IVM", "setting": "rP2X4R Y213A mutant; [3]", "result": "18 ± 4.3", "unit": "s"}, {"measurement": "EC50", "setting": "rP2X4R Y213A mutant; [4]", "result": "6 ± 0.9", "unit": "µM"}, {"measurement": "τdes", "setting": "rP2X4R Y213A mutant; weighted, 100 µM ATP 60 s", "result": "8.5 ± 0.8", "unit": "s"}, {"measurement": "τdes1", "setting": "rP2X4R T281A mutant; [1]", "result": "2.4 ± 0.4", "unit": "s"}, {"measurement": "τdes2", "setting": "rP2X4R T281A mutant; [1]", "result": "15.6 ± 2.3", "unit": "s"}, {"measurement": "Imax", "setting": "rP2X4R T281A mutant; 100–1000 µM ATP", "result": "2.3 ± 0.3", "unit": "nA"}, {"measurement": "Imax+IVM", "setting": "rP2X4R T281A mutant; ATP after 3 µM IVM 4-6 min", "result": "4.8 ± 0.9", "unit": "nA"}, {"measurement": "A2 /(A1+A2)", "setting": "rP2X4R T281A mutant; [2]", "result": "72 ± 12", "unit": "%"}, {"measurement": "τoff +IVM", "setting": "rP2X4R T281A mutant; [3]", "result": "13 ± 1.0", "unit": "s"}, {"measurement": "EC50", "setting": "rP2X4R T281A mutant; [4]", "result": "8.2 ± 2.8", "unit": "µM"}, {"measurement": "τdes", "setting": "rP2X4R T281A mutant; weighted, 100 µM ATP 60 s", "result": "12 ± 2.4", "unit": "s"}, {"measurement": "τdes1", "setting": "rP2X4R N208A mutant; [1]", "result": "1.1 ± 0.8", "unit": "s"}, {"measurement": "τdes2", "setting": "rP2X4R N208A mutant; [1]", "result": "8.7 ± 4.8", "unit": "s"}, {"measurement": "Imax", "setting": "rP2X4R N208A mutant; 100–1000 µM ATP", "result": "1.7 ± 0.3", "unit": "nA"}, {"measurement": "Imax+IVM", "setting": "rP2X4R N208A mutant; ATP after 3 µM IVM 4-6 min", "result": "3.6 ± 0.3", "unit": "nA"}, {"measurement": "A2 /(A1+A2)", "setting": "rP2X4R N208A mutant; [2]", "result": "77 ± 4", "unit": "%"}, {"measurement": "τoff +IVM", "setting": "rP2X4R N208A mutant; [3]", "result": "9.1 ± 0.2", "unit": "s"}, {"measurement": "EC50", "setting": "rP2X4R N208A mutant; [4]", "result": "7.6 ± 2.1", "unit": "µM"}, {"measurement": "τdes", "setting": "rP2X4R N208A mutant; weighted, 100 µM ATP 60 s", "result": "6.8 ± 3.5", "unit": "s"}]}, {"compound": "Nc1ncnc2c1ncn2[C@@H]1O[C@H](CO[P@](=O)(O)O[P@](=O)(O)O[P@@](=O)(O)S)[C@@H](O)[C@H]1O", "note": "[ATPγS, Adenosine 5′-(γ-thio)triphosphate]", "values": [{"measurement": "relative responsiveness", "setting": "rP2X4R Y213A mutant", "result": "37.1±5.5", "unit": "%"}, {"measurement": "relative responsiveness", "setting": "rP2X4R T281A mutant", "result": "50.2±5.9", "unit": "%"}, {"measurement": "relative responsiveness", "setting": "rP2X4R N208A mutant", "result": "42.2±5.2", "unit": "%"}]}, {"compound": "CC[C@H](C)[C@H]1O[C@]2(CC[C@@H]1C)C[C@@H]1C[C@@H](C/C=C(\\C)[C@@H](O[C@H]3C[C@H](OC)[C@@H](O[C@H]4C[C@H](OC)[C@@H](O)[C@H](C)O4)[C@H](C)O3)[C@@H](C)/C=C/C=C3\\CO[C@@H]4[C@H](O)C(C)=C[C@@H](C(=O)O1)[C@]34O)O2", "note": "[IVM, ivermectin]", "values": [{"measurement": "Fold incr. Imax", "setting": "rP2X4R Y213A mutant; [5]", "result": "1.4 ± 0.1", "unit": "fold"}, {"measurement": "Fold incr. Imax", "setting": "rP2X4R T281A mutant; [5]", "result": "2.1 ± 0.2", "unit": "fold"}, {"measurement": "Fold incr. Imax", "setting": "rP2X4R N208A mutant; [5]", "result": "2.3 ± 0.5", "unit": "fold"}]}, {"compound": "Nc1ncnc2c1ncn2C1OC(COP(=O)(O)CP(=O)(O)OP(=O)(O)O)C(O)C1O", "note": "(stereo not drawn) [α,β-meATP, α,β-methyleneadenosine 5′-triphosphate]", "values": [{"measurement": "relative responsiveness", "setting": "rP2X4R Y213A mutant", "result": "31.3±6.7", "unit": "%"}, {"measurement": "relative responsiveness", "setting": "rP2X4R T281A mutant", "result": "28.2±5.5", "unit": "%"}, {"measurement": "relative responsiveness", "setting": "rP2X4R N208A mutant", "result": "28.5±2.3", "unit": "%"}]}]}
